Key:
[1] = target: T1, WRN [UniPro: Q14191 (WRN_HUMAN), N500-C946] (Homo sapiens (Human), UniProt Q14191); assay: WRN ATPase assay (ADP-Glo); assay type: biochemical; details: WRN enzymatic activity assay
[2] = target: T1, WRN [UniPro: Q14191 (WRN_HUMAN), N500-C946]; assay: WRN unwinding assay (FORKF DNA, fluorescence); assay type: biochemical; details: Table 14

T1 sequence (Q14191 500-946): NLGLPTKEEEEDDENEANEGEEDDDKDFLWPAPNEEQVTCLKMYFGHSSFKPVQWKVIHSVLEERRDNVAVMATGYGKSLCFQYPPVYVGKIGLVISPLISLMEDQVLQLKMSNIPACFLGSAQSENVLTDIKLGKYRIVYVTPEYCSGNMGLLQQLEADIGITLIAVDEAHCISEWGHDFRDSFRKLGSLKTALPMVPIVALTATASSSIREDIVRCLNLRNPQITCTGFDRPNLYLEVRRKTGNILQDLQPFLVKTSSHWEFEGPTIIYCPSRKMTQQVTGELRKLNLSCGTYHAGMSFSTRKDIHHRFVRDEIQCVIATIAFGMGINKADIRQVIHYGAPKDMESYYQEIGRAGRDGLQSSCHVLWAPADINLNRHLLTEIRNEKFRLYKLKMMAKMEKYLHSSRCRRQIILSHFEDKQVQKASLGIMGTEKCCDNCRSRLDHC

| IC50 [1] | IC50 [2] | Compound |
| --- | --- | --- |
| < 100 nM | < 100 nM | CCc1c(N2CCN(C(=O)CNC(=O)c3ccccc3Cl)CC2)c(=O)n2nc(C3=CCOCC3)nc2n1CC(=O)Nc1ccc(C(F)(F)F)cc1Cl [Example 111, 2-Chloro-N-(2-(4-(4-(2-((2-chloro-4-(trifluoromethyl)phenyl)amino)-2-oxoethyl)-2-(3,6-dihydro-2H-pyran-4-yl)-5-ethyl-7-oxo-4,7-dihydro-[1,2,4]triazolo[1,5-a]pyrimidin-6-yl)piperazin-1-yl)-2-oxoethyl)benzamide] |
| < 100 nM | < 100 nM | CCc1c(N2CCN(C(=O)c3sc4ncccc4c3O)CC2)c(=O)n2nc(C3=CCOCC3)nc2n1CC(=O)Nc1ccc(C(F)(F)F)cc1Cl [Example 87, N-(2-Chloro-4-(trifluoromethyl)phenyl)-2-(2-(3,6-dihydro-2H-pyran-4-yl)-5-ethyl-6-(4-(3-hydroxythieno[2,3-b]pyridine-2-carbonyl)piperazin-1-yl)-7-oxo-[1,2,4]triazolo[1,5-a]pyrimidin-4(7H)-yl)acetamide] |
| < 100 nM | < 100 nM | CCc1c(N2CCN(C(=O)CNC(=O)c3ncnc(C)c3O)CC2)c(=O)n2nc(C3=CCOCC3)nc2n1CC(=O)Nc1ccc(C(F)(F)F)cc1F [Example 222, N-(2-(4-(2-(3,6-Dihydro-2H-pyran-4-yl)-5-ethyl-4-(2-((2-fluoro-4-(trifluoromethyl)phenyl)amino)-2-oxoethyl)-7-oxo-4,7-dihydro-[1,2,4]triazolo[1,5-a]pyrimidin-6-yl)piperazin-1-yl)-2-oxoethyl)-5-hydroxy-6-methylpyrimidine-4-carboxamide] |
| 100 to 1000 nM | < 100 nM | CCc1c(N2CCN(C(=O)c3cn(C)c(=O)[nH]c3=O)CC2)c(=O)n2nc(C3=CCOCC3)nc2n1CC(=O)Nc1ccc(C(F)(F)F)cc1Cl [Example 59, N-(2-Chloro-4-(trifluoromethyl)phenyl)-2-(2-(3,6-dihydro-2H-pyran-4-yl)-5-ethyl-6-(4-(1-methyl-2,4-dioxo-1,2,3,4-tetrahydropyrimidine-5-carbonyl)piperazin-1-y1)-7-oxo-[1,2,4]triazolo[1,5-a]pyrimidin-4(7H)-yl)acetamide] |
| < 100 nM | < 100 nM | CCc1c(N2CCN(C(=O)C(=O)Nc3cc(C)ns3)CC2)c(=O)n2nc(C3=CCOCC3)nc2n1CC(=O)Nc1ccc(C(F)(F)F)cc1F [Example 325, 2-(4-(2-(3,6-Dihydro-2H-pyran-4-yl)-5-ethyl-4-(2-((2-fluoro-4-(trifluoromethyl)phenyl)amino)-2-oxoethyl)-7-oxo-4,7-dihydro-[1,2,4]triazolo[1,5-a]pyrimidin-6-yl)piperazin-1-yl)-N-(3-methylisothiazol-5-yl)-2-oxoacetamide] |
| 100 to 1000 nM | < 100 nM | CCc1c(N2CCN(C(=O)CNC(=O)c3c(Cl)cccc3Cl)CC2)c(=O)n2nc(C3=CCOCC3)nc2n1CC(=O)Nc1ccc(C(F)(F)F)cc1Cl [Example 125, 2,6-Dichloro-N-(2-(4-(4-(2-((2-chloro-4-(trifluoromethyl)phenyl)amino)-2-oxoethyl)-2-(3,6-dihydro-2H-pyran-4-yl)-5-ethyl-7-oxo-4,7-dihydro-[1,2,4]triazolo[1,5-a]pyrimidin-6-yl)piperazin-1-yl)-2-oxoethyl)benzamide] |
| 100 to 1000 nM | 100 to 1000 nM | CCc1c(N2CCN(C(=O)c3ccnc4cc[nH]c34)CC2)c(=O)n2nc(C3=CCOCC3)nc2n1CC(=O)Nc1ccc(Cl)cc1C(F)(F)F [Example 68, 2-(6-(4-(1H-Pyrrolo[3,2-b]pyridine-7-carbonyl)piperazin-1-yl)-2-(3,6-dihydro-2H-pyran-4-yl)-5-ethyl-7-oxo-[1,2,4]triazolo[1,5-a]pyrimidin-4(7H)-yl)-N-(4-chloro-2-(trifluoromethyl)phenyl)acetamide] |
| 100 to 1000 nM | 100 to 1000 nM | CCc1c(N2CCN(C(=O)C(=O)Nc3cc(C)on3)CC2)c(=O)n2nc(N3CCOCC3)nc2n1CC(=O)Nc1ccc(C(F)(F)F)cc1Cl [Example 352, 2-(4-(4-(2-((2-Chloro-4-(trifluoromethyl)phenyl)amino)-2-oxoethyl)-5-ethyl-2-morpholino-7-oxo-4,7-dihydro-[1,2,4]triazolo[1,5-a]pyrimidin-6-yl)piperazin-1-yl)-N-(5-methylisoxazol-3-yl)-2-oxoacetamide] |
| < 100 nM | < 100 nM | CCc1c(N2CCN(C(=O)CNC(=O)NC3CC3)CC2)c(=O)n2nc(C3=CCOCC3)nc2n1CC(=O)Nc1ccc(C(F)(F)F)cc1Cl [Example 184, N-(2-Chloro-4-(trifluoromethyl)phenyl)-2-(6-(4-((cyclopropylcarbamoyl)glycyl)piperazin-1-yl)-2-(3,6-dihydro-2H-pyran-4-yl)-5-ethyl-7-oxo-[1,2,4]triazolo[1,5-a]pyrimidin-4(7H)-yl)acetamide] |
| < 100 nM | < 100 nM | CCc1c(N2CCN(C(=O)NS(=O)(=O)CC)CC2)c(=O)n2nc(C3=CCOCC3)nc2n1CC(=O)Nc1ccc(C(F)(F)F)cc1Cl [Example 25, 4-(4-(2-((2-Chloro-4-(trifluoromethyl)phenyl)amino)-2-oxoethyl)-2-(3,6-dihydro-2H-pyran-4-yl)-5-ethyl-7-oxo-4,7-dihydro-[1,2,4]triazolo[1,5-a]pyrimidin-6-yl)-N-(ethylsulfonyl)piperazine-1-carboxamide] |
| 100 to 1000 nM | 100 to 1000 nM | CCc1c(N2CCN(C(=O)c3cnn4cccc4c3O)CC2)c(=O)n2nc(C3=CCOCC3)nc2n1CC(=O)Nc1sc(C)cc1Br [Example 146, N-(3-Bromo-5-methylthiophen-2-yl)-2-(2-(3,6-dihydro-2H-pyran-4-yl)-5-ethyl-6-(4-(4-hydroxypyrrolo[1,2-b]pyridazine-3-carbonyl)piperazin-1-yl)-7-oxo-[1,2,4]triazolo[1,5-a]pyrimidin-4(7H)-yl)acetamide] |
| < 100 nM | < 100 nM | CCc1c(N2CCN(C(=O)CNc3nc(=O)c4ccccc4[nH]3)CC2)c(=O)n2nc(C3=CCOCC3)nc2n1CC(=O)Nc1ccc(C(F)(F)F)cc1Cl [Example 208, N-(2-Chloro-4-(trifluoromethyl)phenyl)-2-(2-(3,6-dihydro-2H-pyran-4-yl)-5-ethyl-7-oxo-6-(4-((4-oxo-1,4-dihydroquinazolin-2-yl)glycyl)piperazin-1-yl)-[1,2,4]triazolo[1,5-a]pyrimidin-4(7H)-yl)acetamide] |
| 100 to 1000 nM | > 1000 nM | CCc1c(N2CCN(C(=O)CNC(=O)c3ccccc3)CC2)c(=O)n2nc(C3=CCOCC3)nc2n1CC(=O)N(C)c1ccc(C(F)(F)F)cc1Cl [Example 143, N-(2-(4-(4-(2-((2-Chloro-4-(trifluoromethyl)phenyl)(methyl)amino)-2-oxoethyl)-2-(3,6-dihydro-2H-pyran-4-yl)-5-ethyl-7-oxo-4,7-dihydro-[1,2,4]triazolo[1,5-a]pyrimidin-6-yl)piperazin-1-yl)-2-oxoethyl)benzamide] |
| < 100 nM | < 100 nM | CCc1c(N2CCN(C(=O)c3cc4c(O)ccnc4o3)CC2)c(=O)n2nc(C3=CCOCC3)nc2n1CC(=O)Nc1ccc(C(F)(F)F)cc1Cl [Example 88, N-(2-Chloro-4-(trifluoromethyl)phenyl)-2-(2-(3,6-dihydro-2H-pyran-4-yl)-5-ethyl-6-(4-(4-hydroxyfuro[2,3-b]pyridine-2-carbonyl)piperazin-1-yl)-7-oxo-[1,2,4]triazolo[1,5-a]pyrimidin-4(7H)-yl)acetamide] |
| < 100 nM | < 100 nM | CCc1c(N2CCN(C(=O)CNC(=O)COC)CC2)c(=O)n2nc(C3=CCOCC3)nc2n1CC(=O)Nc1ccc(C(F)(F)F)cc1Cl [Example 174, N-(2-Chloro-4-(trifluoromethyl)phenyl)-2-(2-(3,6-dihydro-2H-pyran-4-yl)-5-ethyl-6-(4-((2-methoxyacetyl)glycyl)piperazin-1-yl)-7-oxo-[1,2,4]triazolo[1,5-a]pyrimidin-4(7H)-yl)acetamide] |
| < 100 nM | < 100 nM | CCc1c(N2CCN(C(=O)CNC(=O)CC3CCC3)CC2)c(=O)n2nc(C3=CCOCC3)nc2n1CC(=O)Nc1ccc(C(F)(F)F)cc1Cl [Example 272, N-(2-Chloro-4-(trifluoromethyl)phenyl)-2-(6-(4-((2-cyclobutylacetyl)glycyl)piperazin-1-yl)-2-(3,6-dihydro-2H-pyran-4-yl)-5-ethyl-7-oxo-[1,2,4]triazolo[1,5-a]pyrimidin-4(7H)-yl)acetamide] |
| < 100 nM | < 100 nM | CCc1c(N2CCN(C(=O)c3nn4ccnc4cc3O)CC2)c(=O)n2nc(C3=CCOCC3)nc2n1CC(=O)Nc1ccc(C(F)(F)F)cc1Cl [Example 85, N-(2-Chloro-4-(trifluoromethyl)phenyl)-2-(2-(3,6-dihydro-2H-pyran-4-yl)-5-ethyl-6-(4-(7-hydroxyimidazo[1,2-b]pyridazine-6-carbonyl)piperazin-1-yl)-7-oxo-[1,2,4]triazolo[1,5-a]pyrimidin-4(7H)-yl)acetamide] |
| < 100 nM | < 100 nM | CCc1c(N2CCN(C(=O)CNC(=O)c3cc(NC)ccc3F)CC2)c(=O)n2nc(C3=CCOCC3)nc2n1CC(=O)Nc1ccc(C(F)(F)F)cc1Cl [Example 289, N-(2-(4-(4-(2-((2-Chloro-4-(trifluoromethyl)phenyl)amino)-2-oxoethyl)-2-(3,6-dihydro-2H-pyran-4-yl)-5-ethyl-7-oxo-4,7-dihydro-[1,2,4]triazolo[1,5-a]pyrimidin-6-yl)piperazin-1-yl)-2-oxoethyl)-2-fluoro-5-(methylamino)benzamide] |
| < 100 nM | < 100 nM | CCc1c(N2CCN(C(=O)C(=O)Nc3ccno3)CC2)c(=O)n2nc(C3=CCOCC3)nc2n1CC(=O)Nc1ccc(C(F)(F)F)cc1F [Example 341, 2-(4-(2-(3,6-Dihydro-2H-pyran-4-yl)-5-ethyl-4-(2-((2-fluoro-4-(trifluoromethyl)phenyl)amino)-2-oxoethyl)-7-oxo-4,7-dihydro-[1,2,4]triazolo[1,5-a]pyrimidin-6-yl)piperazin-1-yl)-N-(isoxazol-5-yl)-2-oxoacetamide] |

Reference: patent US20260015358A1, “BICYCLIC DERIVATIVES, COMPOSITIONS AND USES THEREOF” (Danatlas Pharmaceuticals Co., Ltd., priority 2023, published 2026)
